Assay results taken from BindingDB's records for PubMed 33356248 (Scientus Pharma, 2021).

Biological target: Cannabinoid receptor 2 (Homo sapiens, UniProt P34972)
Sequence (P34972 whole entry): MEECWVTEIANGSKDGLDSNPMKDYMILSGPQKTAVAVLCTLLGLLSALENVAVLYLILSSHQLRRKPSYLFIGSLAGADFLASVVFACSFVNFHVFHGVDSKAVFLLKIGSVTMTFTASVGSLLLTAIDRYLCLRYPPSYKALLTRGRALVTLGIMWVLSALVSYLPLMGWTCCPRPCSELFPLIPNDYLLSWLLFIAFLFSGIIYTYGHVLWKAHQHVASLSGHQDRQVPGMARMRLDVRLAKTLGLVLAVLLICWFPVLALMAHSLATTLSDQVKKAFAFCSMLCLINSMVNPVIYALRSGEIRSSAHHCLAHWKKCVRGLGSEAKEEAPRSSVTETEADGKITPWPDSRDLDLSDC

Structure (SMILES): CCCCCc1cc(O)c2c(c1)OC(C)(C)c1ccc(C)cc1-2 [6,6,9-Trimethyl-3-pentyl-6H-benzo[c]chromen-1-ol(Cannabinol)]
- EC50: 60 nM
